Assay results as given in US11440900B2, “Agricultural chemicals” (GLOBACHEM NV, priority 2018, dated 2022).

Experiments:
Format in all cases: cell-based
Alternaria alternata = assay: Fungicidal activity screen in amended agar, 96 well plates, Alternaria alternata; details: fungal growth vs DMSO control, Medium N agar, 1,000 spores/ml, 20, 2, 0.2 and 0.02 ppm, 18° C., assessed after 3 to 4 days, read-out: Alternaria EC50 ranking
Method: (§1) Compounds were screened in 96 well plates with 10 compounds per plate. Each compound was screened using agar amended to 20, 2, 0.2 and 0.02 ppm of the test material. Proline at 50 and 10 ppm and 0.2% DMSO were used respectively as positive and negative controls. Each test concentration and standard were tested twice on a plate.
(§2) Compounds were screened against the following three fungal pathogens—Botrytis cinerea, Alternaria alternata and Zymoseptoria tritici. The agar used in the test varied depending on the pathogen with Medium N used for B. cinerea and A. alternata and 1% potato dextrose agar for Z. tritici. For each pathogen sufficient spores were added to the appropriate agar to give 1,000 spores/ml agar of A. alternata, 5,000 spores/ml agar of B. cinerea and 10,000 spores/ml agar of Z. tritici.
(§3) A ×10 stock solution in 2% DMSO was produced for each dose i.e. 200, 20, 2 and 0.2 ppm, and 10 μl of this added to the appropriate wells on the plate. An equivalent amount of 2% DMSO and Proline stock at 500 and 100 ppm were added for the controls. To each well 90 μl of the appropriate agar spore suspension was added to give the final well concentrations outlined in the first paragraph.
(§4) Plates were incubated at room temperature (18° C.) and assessed after • a) 3 to 4 days A. alternata and B. cinerea • b) 7 days for Z. tritici
(§5) The amount of fungal growth in each well was compared to the DMSO controls and scored according to the following key • 0—no growth (100% control) • 1—growth reduced by 75% compared to DMSO control (25% growth) • 2—growth reduced by 50% compared to DMSO control (50% growth) • 3—growth reduced by 25% compared to DMSO control growth (75% growth) • 4—no reduction in growth compared to DMSO control growth (100% growth)
(§6) Those numbers were then used to give an EC50. The ranking in the table is: • A) EC50<20 ppm, B) EC50≥20ppm

Zymoseptoria tritici = assay: Fungicidal activity screen in amended agar, 96 well plates, Zymoseptoria tritici; details: 168 h, fungal growth vs DMSO control, 1% potato dextrose agar, 10,000 spores/ml, 20, 2, 0.2 and 0.02 ppm, 18° C., assessed after 7 days, read-out: Zymoseptoria EC50 ranking
Method: as §1, §2, §3, §4, §5, §6

Botrytis cinerea = assay: Fungicidal activity screen in amended agar, 96 well plates, Botrytis cinerea; details: fungal growth vs DMSO control, Medium N agar, 5,000 spores/ml, 20, 2, 0.2 and 0.02 ppm, 18° C., assessed after 3 to 4 days, read-out: Botrytis EC50 ranking
Method: as §1, §2, §3, §4, §5, §6

| Compound | EC50 (Alternaria alternata) | EC50 (Zymoseptoria tritici) | EC50 (Botrytis cinerea) |
| --- | --- | --- | --- |
| COc1ccc(-c2c(-n3nnc4cc(Cl)cc(F)c43)ccnc2Cl)c(Cl)c1 [Example 20, 5-Chloro-1-(2-chloro-3-(2-chloro-4-methoxyphenyl)pyridin-4-yl)-7-fluoro-1H-benzo[d][1,2,3]triazole] | < 20 µg/mL | < 20 µg/mL | < 20 µg/mL |
| COc1ccc(-c2c(C)ncnc2-n2cnc3cc(Cl)cc(F)c32)c(Cl)c1 [Example 11] | < 20 µg/mL | < 20 µg/mL | < 20 µg/mL |
| COc1ccc(-c2c(C)ncnc2-n2cnc3cc(F)cc(F)c32)c(Cl)c1 [Example 2] | < 20 µg/mL | < 20 µg/mL | < 20 µg/mL |
| Fc1ccc(-c2c(-n3cnc4cc(F)cc(F)c43)ccnc2Cl)c(Cl)c1 [Example 5] | < 20 µg/mL | < 20 µg/mL | < 20 µg/mL |
| C#CCOc1ccc2c(c1)ncn2-c1ccnc(Cl)c1-c1ccc(F)cc1Cl [Example 15] | < 20 µg/mL | < 20 µg/mL | < 20 µg/mL |
| Cc1ccc2c(c1)ncn2-c1cccc(C)c1-c1ccc(F)cc1Cl [Example 10] | < 20 µg/mL | < 20 µg/mL | < 20 µg/mL |
| Cc1ncnc(-n2nnc3cc(Cl)cc(F)c32)c1-c1ccc(F)cc1Cl [Example 21] | ≥ 20 µg/mL | < 20 µg/mL | < 20 µg/mL |
| Cc1ncnc(-n2cnc3cc(F)cc(F)c32)c1-c1ccc(F)cc1Cl [Example 1, 1-(5-(2-Chloro-4-fluorophenyl)-6-methylpyrimidin-4-yl)-5,7-difluoro-1H-benzo[d]imidazole] | < 20 µg/mL | < 20 µg/mL | < 20 µg/mL |
| COc1ccc(-c2c(C)ncnc2-n2nnc3cc(Cl)cc(F)c32)c(Cl)c1 [Example 22] | ≥ 20 µg/mL | < 20 µg/mL | < 20 µg/mL |
| Cc1cccc(-n2cnc3cc(Cl)ccc32)c1-c1ccc(F)cc1Cl [Example 9] | < 20 µg/mL | < 20 µg/mL | < 20 µg/mL |
| COc1ccc(-c2c(-n3cnc4cc(Br)cc(F)c43)ccnc2Cl)c(Cl)c1 [Example 18] | < 20 µg/mL | < 20 µg/mL | < 20 µg/mL |
| C#CCOc1ccc2c(c1)ncn2-c1nccc(C)c1-c1ccc(F)cc1Cl [Example 17] | < 20 µg/mL | < 20 µg/mL | < 20 µg/mL |
| Cc1ncnc(-n2cnc3cc(Cl)cc(F)c32)c1-c1ccc(F)cc1Cl [Example 12] | < 20 µg/mL | < 20 µg/mL | < 20 µg/mL |
| Cc1cccc(-n2cnc3ccccc32)c1-c1ccc(F)cc1Cl [Example 8] | < 20 µg/mL | < 20 µg/mL | < 20 µg/mL |
| Cc1ccnc(-n2nnc3cc(Cl)cc(F)c32)c1-c1ccc(F)cc1Cl [Example 23] | < 20 µg/mL | < 20 µg/mL | < 20 µg/mL |
| Cc1cccc(-n2cnc3cc(F)cc(F)c32)c1-c1ccc(F)cc1Cl [Example 6] | < 20 µg/mL | < 20 µg/mL | < 20 µg/mL |
| COc1cc(F)c(-c2c(C)cccc2-n2cnc3cc(F)cc(F)c32)c(F)c1 [Example 7] | < 20 µg/mL | < 20 µg/mL | < 20 µg/mL |
| Cc1ccnc(-n2cnc3cc(Cl)cc(F)c32)c1-c1ccc(F)cc1Cl [Example 16] | < 20 µg/mL | < 20 µg/mL | < 20 µg/mL |
| Cc1ccnc(-n2cnc3cc(F)cc(F)c32)c1-c1ccc(F)cc1Cl [Example 4] | < 20 µg/mL | < 20 µg/mL | < 20 µg/mL |
| COc1ccc(-c2c(-n3cnc4cc(Cl)cc(F)c43)ccnc2Cl)c(Cl)c1 [Example 13] | < 20 µg/mL | < 20 µg/mL | < 20 µg/mL |
| Cc1ncnc(-n2cnc3cc(F)cc(F)c32)c1-c1ccccc1Cl [Example 3] | < 20 µg/mL | < 20 µg/mL | < 20 µg/mL |
| COc1ccc(-c2c(-n3nnc4cc(Br)cc(F)c43)ccnc2Cl)c(Cl)c1 [Example 26] | ≥ 20 µg/mL | ≥ 20 µg/mL | < 20 µg/mL |
| COc1ccc(-c2c(C)ccnc2-n2nnc3cc(Cl)cc(F)c32)c(Cl)c1 [Example 24] | ≥ 20 µg/mL | < 20 µg/mL | < 20 µg/mL |
| Fc1ccc(-c2c(-n3cnc4cc(Cl)cc(F)c43)ccnc2Cl)c(Cl)c1 [Example 14] | < 20 µg/mL | < 20 µg/mL | < 20 µg/mL |
| Fc1ccc(-c2c(-n3nnc4cc(Cl)cc(F)c43)ccnc2Cl)c(Cl)c1 [Example 25] | < 20 µg/mL | < 20 µg/mL | < 20 µg/mL |
| Fc1ccc(-c2c(-n3cnc4cc(F)ccc43)cnnc2Cl)c(Cl)c1 [Example 27] | ≥ 20 µg/mL | < 20 µg/mL | < 20 µg/mL |
| COc1cc(F)c(-c2c(C)ncnc2-n2cnc3cc(Cl)cc(F)c32)c(F)c1 [Example 19] | < 20 µg/mL | < 20 µg/mL | < 20 µg/mL |
